The values below come from patent US8937065B2, “Compositions and methods for modulating a kinase” (Clevexel Pharma, priority 2011, dated 2015).

For one assay, the system named is Ramos cells. In words: Proliferation of Ramos cells (Cell Titer-Glo). As to conditions: Homo sapiens, B cells, outcome-based, read-out: IC50 Proliferation Ramos cells (Burkitt's lymphoma). A general note: Cellular ATP, detected with luciferase, serves as a proxy for viable cell number.
In another assay the test system is NALM-6 cells. In words: Proliferation of NALM-6 cells (cell proliferation index, flow cytometry). As to conditions: Homo sapiens, B cells, outcome-based, read-out: IC50 Proliferation NALM-6 cells (ALL). As to the method: Cell proliferation of the human B cell precursor leukemia tumor cell line NALM-6 was measured by a cell proliferation index assay. This assay was based on the dilution rate of a fluorescent membrane marker which is directly linked to the cell division. Briefly, the assay was performed by loading the cells with a non-toxic fluorescent phospholipid analog before the seeding. The probe inserts stably into the plasmic membrane and was distributed between daughter cells after division. Flow cytometry analysis of the fluorescent probe was performed directly after the loading of the cells and after 96 hours of culture. The dilution rate of the fluorescent probe at the single cell level was directly correlated to the number of cell divisions. All experiments were performed in triplicate.
Detection of cellular events was performed in triplicate in 96 well-plates after 72 hours of treatment by automated flow cytometry. Non-linear regressions were performed with GraphPad Prism 4.01 software.
Cells were previously thawed and amplified in standard culture conditions (37° C., 5% CO2). NALM-6 cells were cultivated in RPMI 1640+10% inactivated Fetal Bovine Serum. […]
Day 4: After 72 hours of treatment, the cells were analyzed by automated flow cytometry.
(In general: In flow cytometry, cells or beads pass a laser one at a time.)

The target of a further assay is hERG (Homo sapiens, UniProt Q12809). Briefly: hERG IC50.
Chain of hERG (Q12809 whole entry): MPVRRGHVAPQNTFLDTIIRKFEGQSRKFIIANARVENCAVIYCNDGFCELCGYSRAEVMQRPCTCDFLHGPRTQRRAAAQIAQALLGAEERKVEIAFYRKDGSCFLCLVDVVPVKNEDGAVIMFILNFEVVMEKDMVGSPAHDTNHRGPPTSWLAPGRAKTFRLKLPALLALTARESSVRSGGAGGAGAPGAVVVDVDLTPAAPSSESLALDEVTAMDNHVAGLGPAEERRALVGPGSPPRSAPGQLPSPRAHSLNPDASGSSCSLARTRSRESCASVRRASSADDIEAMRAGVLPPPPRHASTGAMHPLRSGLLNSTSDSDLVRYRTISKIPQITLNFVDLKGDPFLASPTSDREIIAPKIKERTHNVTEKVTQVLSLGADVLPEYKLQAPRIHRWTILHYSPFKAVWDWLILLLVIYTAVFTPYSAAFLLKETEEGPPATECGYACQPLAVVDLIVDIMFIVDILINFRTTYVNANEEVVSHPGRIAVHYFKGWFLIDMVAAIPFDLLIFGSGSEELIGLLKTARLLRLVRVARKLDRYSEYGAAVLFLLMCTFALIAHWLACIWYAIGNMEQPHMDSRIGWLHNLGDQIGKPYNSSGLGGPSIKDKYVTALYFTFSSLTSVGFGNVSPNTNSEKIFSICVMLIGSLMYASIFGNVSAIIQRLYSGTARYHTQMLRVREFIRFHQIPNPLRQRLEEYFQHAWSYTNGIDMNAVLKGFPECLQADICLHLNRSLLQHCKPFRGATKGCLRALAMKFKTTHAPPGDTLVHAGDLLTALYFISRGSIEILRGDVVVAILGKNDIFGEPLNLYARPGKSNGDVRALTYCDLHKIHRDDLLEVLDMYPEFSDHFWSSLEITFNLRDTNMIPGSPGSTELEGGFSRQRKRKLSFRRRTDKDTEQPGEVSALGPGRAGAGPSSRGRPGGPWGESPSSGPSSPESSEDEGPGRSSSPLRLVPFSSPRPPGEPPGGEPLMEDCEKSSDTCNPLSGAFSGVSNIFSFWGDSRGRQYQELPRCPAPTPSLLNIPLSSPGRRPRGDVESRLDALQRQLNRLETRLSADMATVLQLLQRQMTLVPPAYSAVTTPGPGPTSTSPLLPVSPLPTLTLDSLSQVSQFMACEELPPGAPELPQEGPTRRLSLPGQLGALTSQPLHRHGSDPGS
The subject of assay [1] is collagen induced arthritis (CIA) in DBA/1 mice. Briefly: Mouse collagen induced arthritis (CIA) slow-progressing disease model. The format is in vivo. As to conditions: 100 mg/kg IP QD, 20 days, mild CIA model, n=10, P<0.05. As for the experimental part:
Compounds of the invention were evaluated in mouse collagen induced arthritis (CIA) models. There are several known CIA models as outlined in the table below:
The CIA studies utilized a mild (slow-progressing) disease model. The DBA/1 mice developed collagen induced arthritis (CIA) after immunization with Hooke Kit™ chicken collagen/Complete Freund's Adjuvant (CFA) emulsion (EK-0210), followed by a booster dose of Hooke Kit™ chicken collagen/Incomplete Freund's Adjuvant (IFA) emulsion (EK-0211). Each study used 54 female DBA/1 mice (Taconic Farms model DBA1BO, 9 weeks old) later assigned to […] with 10 mice per group. 4 mice were not immunized nor treated, and they were left as naïve controls group for possible histological analysis. The other 50 mice were treated therapeutically.
One study comprises group 1—Vehicle, group 2—CP-690550, 30 mg/kg PO QD, group 3—R-788, 60 mg/kg PO QD and group 4—compound 7, 100 mg/kg, IP QD. The other study comprises group 1—Vehicle, group 2—compound 7, 15 mg/kg PO QD, group 3—compound 7, 30 mg/kg PO QD and group 4—compound 7, 100 mg/kg, IP QD.
Mice were first immunized with collagen/CFA emulsion on Day 0 after being acclimated for at least 7 days. The procedure of immunization was as follows: A mouse was immobilized using a restrainer. The tail was cleaned with 70% ethanol and the area was wiped dry with sterile gauze. […]

On to `O=C(CN1CCOCC1)Nc1cccc(-c2nc(-c3c[nH]c(C(=O)N4CCCC4)c3)cs2)c1` [7A, 2-morpholino-N-(3-(4-(5-(pyrrolidine-1-carbonyl)-1H-pyrrol-3-yl)thiazol-2-yl)phenyl)acetamide], for which the figures for the IC50 with Ramos cells, in the assay with NALM-6 cells and on hERG were 534 nM, 480 nM and above 10000 nM, respectively. Moreover, in assay [1], the “CIA score on the last day vs. combined vehicle” value was “reduction in CIA score”.
